Data set [1] can be described thus: Precipitation suppression (recrystallization temperature on cooling, hot stage under polarizing microscope). Format: physicochemical. Particulars: for Precipitation suppression: class by recrystallization temperature, heated to isotropic phase, then lowered at 5° C./min. The procedure: Two polarizers of an optical microscope (ECLIPSE E600 POL, manufactured by Nikon Corporation) were arranged so that they were orthogonal to each other, and a sample stand was set between the two polarizers.
Then, a small amount of each synthesized compound was placed on a slide glass, and the slide glass was set on a hot stage placed on a sample stand. While observing the state of the sample with a microscope, the temperature of the hot stage was raised at 5° C./min, and the type of liquid crystal phase and the temperature at which phase transition occurred were recorded from the state of the sample.
In addition, for the recrystallization temperature, the temperature was elevated up to an isotropic phase and then lowered at 5° C./min, and a temperature at which crystals were precipitated was recorded.
Based on the results of the recrystallization temperature measured by the above-mentioned method for evaluating the phase transition temperature, the evaluation was made according to the following standard. The results are shown in Table 3 below. • A: Lower than 50° C. • B: 50° C. or higher and 100° C. or lower • C: Higher than 100° C. and 150° C. or lower • D: Higher than 150° C. and 180° C. or lower

The nature of data set [2]: Solubility in cyclopentanone. Format: physicochemical. Particulars: for Solubility: heated and stirred at 50° C. for 1 minute, left at 20° C. for 10 minutes, concentration lowered from 40% in 5% steps. How it is done: Cyclopentanone was added to 25 mg of each synthesized compound so that the concentration of each compound was 40% by mass, and the mixture was heated and stirred at 50° C. for 1 minute.
Then, the mixture was left to stand at 20° C. for 10 minutes, and in a case where there is no undissolved residue or precipitation, it is determined that the mixture can be dissolved at 40% by mass.
In a case where there was an undissolved residue or precipitation, cyclopentanone was further added to the mixture to reduce the concentration by 5% by mass, an operation of heating and stirring at 50° C. for 1 minute and then leaving the mixture stand at 20° C. for 10 minutes was repeatedly performed until there was no undissolved residue or precipitation, thereby confirming the solubility.

For the compound `C=CC(=O)OCCCCOC(=O)C1CCC(C2CCC(C(=O)Oc3ccc(OC(=O)C4CCC(C5CCC(C(=O)OCCCCOC(=O)C=C)CC5)CC4)c4ccccc34)CC2)CC1` (centres unmarked) [Compound 1-1], in data set [1], the Precipitation suppression result was “D (Higher than 150 °C and 180 °C or lower)”. Besides, the Solubility in data set [2] stood at 20 % by mass.

Turning to `C=CC(=O)OCCCCOC(=O)C1CCC(C2CCC(C(=O)Oc3cc(C)c(OC(=O)C4CCC(C5CCC(C(=O)OCCCCOC(=O)C=C)CC5)CC4)c4ccccc34)CC2)CC1` (centres unmarked) [Compound 1-2], the Precipitation suppression result in data set [1] was “C (Higher than 100 °C and 150 °C or lower)”. Moreover, the Solubility in data set [2] is listed as 25 % by mass.

On to `C=CC(=O)OCCCCOC(=O)C1CCC(C2CCC(C(=O)Oc3cc(OC)c(OC(=O)C4CCC(C5CCC(C(=O)OCCCCOC(=O)C=C)CC5)CC4)c4ccccc34)CC2)CC1` (centres unmarked) [Compound 1-3], for which the Precipitation suppression entry in data set [1] is “C (Higher than 100 °C and 150 °C or lower)”. Further, the Solubility in data set [2] turned out to be 20 % by mass.

With `C=CC(=O)OCCCCOC(=O)C1CCC(C2CCC(C(=O)Oc3cc(OCC)c(OC(=O)C4CCC(C5CCC(C(=O)OCCCCOC(=O)C=C)CC5)CC4)c4ccccc34)CC2)CC1` (centres unmarked) [Compound 1-4], the Precipitation suppression result in data set [1] was “B (50 °C or higher and 100 °C or lower)”. Further, the Solubility in data set [2] is given as above 40 % by mass.

Consider `C=CC(=O)OCCCCOC(=O)C1CCC(C2CCC(C(=O)Oc3cc(C(=O)OC)c(OC(=O)C4CCC(C5CCC(C(=O)OCCCCOC(=O)C=C)CC5)CC4)c4ccccc34)CC2)CC1` (centres unmarked) [Compound 1-5], for which the Precipitation suppression result in data set [1] is “B (50 °C or higher and 100 °C or lower)”. Further, the Solubility in data set [2] is above 40 % by mass.

As for `C=CC(=O)OCCCCOC(=O)C1CCC(C2CCC(C(=O)Oc3ccc(OC(=O)C4CCC(C5CCC(C(=O)OCCCCOC(=O)C=C)CC5)CC4)c4cc(C)ccc34)CC2)CC1` (centres unmarked) [Compound 1-6], the Precipitation suppression result in data set [1] was “C (Higher than 100 °C and 150 °C or lower)”. This compound also registered a Solubility in data set [2] of 35 % by mass.

Consider `C=CC(=O)OCCCCOC(=O)C1CCC(C2CCC(C(=O)Oc3ccc(OC(=O)C4CCC(C5CCC(C(=O)OCCCCOC(=O)C=C)CC5)CC4)c4c(C)cccc34)CC2)CC1` (centres unmarked) [Compound 1-7], for which the Precipitation suppression result in data set [1] was “C (Higher than 100 °C and 150 °C or lower)”. The Solubility in data set [2] stood at 25 % by mass.

In the case of `C=CC(=O)OCCCCOC(=O)C1CCC(C2CCC(C(=O)Oc3ccc(OC(=O)C4CCC(C5CCC(C(=O)OCCCCOC(=O)C=C)CC5)CC4)c4c(OCC)cccc34)CC2)CC1` (centres unmarked) [Compound 1-8], the Precipitation suppression entry in data set [1] is “B (50 °C or higher and 100 °C or lower)”. In data set [2], this compound registered a Solubility of 20 % by mass.

On to `C=CC(=O)OCCCCOC(=O)C1CCC(C2CCC(C(=O)Oc3ccc(OC(=O)C4CCC(C5CCC(C(=O)OCCCCOC(=O)C=C)CC5)CC4)c4c(OCCCC)cccc34)CC2)CC1` (centres unmarked) [Compound 1-9], for which the Precipitation suppression result in data set [1] is “A (Lower than 50° C.)”. For the same compound, the Solubility in data set [2] amounted to 20 % by mass.

In the case of `C=CC(=O)OCCCCOC(=O)C1CCC(C2CCC(C(=O)Oc3ccc(OC(=O)C4CCC(C5CCC(C(=O)OCCCCOC(=O)C=C)CC5)CC4)c4c(OCCCCCCCC)cccc34)CC2)CC1` (centres unmarked) [Compound 1-10], the Precipitation suppression entry in data set [1] is “B (50 °C or higher and 100 °C or lower)”. In data set [2], this compound yielded a Solubility of 30 % by mass.

As to `C=CC(=O)OCCCCOC(=O)C1CCC(C2CCC(C(=O)Oc3ccc(OC(=O)C4CCC(C5CCC(C(=O)OCCCCOC(=O)C=C)CC5)CC4)c4c(OC(C)=O)cccc34)CC2)CC1` (centres unmarked) [Compound 1-11], the Precipitation suppression result in data set [1] is given as “A (Lower than 50° C.)”. This compound also yielded a Solubility in data set [2] of 35 % by mass.

As for `C=C(C)C(=O)OCCCCOC(=O)C1CCC(C2CCC(C(=O)Oc3ccc(OC(=O)C4CCC(C5CCC(C(=O)OCCCCOC(=O)C(=C)C)CC5)CC4)c4c(OC(C)=O)cccc34)CC2)CC1` (centres unmarked) [Compound 1-12], the Precipitation suppression entry in data set [1] is “A (Lower than 50° C.)”. The Solubility in data set [2] was determined as 35 % by mass.

With `C=CC(=O)OCCOC(=O)C1CCC(C2CCC(C(=O)Oc3ccc(OC(=O)C4CCC(C5CCC(C(=O)OCCOC(=O)C=C)CC5)CC4)c4c(OC(C)=O)cccc34)CC2)CC1` (centres unmarked) [Compound 1-13], the Precipitation suppression result in data set [1] was “A (Lower than 50° C.)”. In addition, the Solubility in data set [2] was 30 % by mass.

On to `C=CC(=O)OCCOCCOCCOC(=O)C1CCC(C2CCC(C(=O)Oc3ccc(OC(=O)C4CCC(C5CCC(C(=O)OCCOCCOCCOC(=O)C=C)CC5)CC4)c4c(OC(C)=O)cccc34)CC2)CC1` (centres unmarked) [Compound 1-15], for which, in data set [1], the Precipitation suppression result is “A (Lower than 50° C.)”. Moreover, the Solubility in data set [2] is above 40 % by mass.

For the compound `C=CC(=O)OCCCCOC(=O)C1CCC(C2CCC(C(=O)Oc3ccc(OC(=O)C4CCC(C5CCC(C(=O)OCCCCOC(=O)C=C)CC5)CC4)c4c(OCC)ccc(OCC)c34)CC2)CC1` (centres unmarked) [Compound 1-16], the Precipitation suppression result in data set [1] is on record as “A (Lower than 50° C.)”. The Solubility in data set [2] is on record as above 40 % by mass.

With `C=CC(=O)OCCCCOC(=O)C1CCC(C2CCC(C(=O)Oc3ccc(OC(=O)C4CCC(C5CCC(C(=O)OCCCCOC(=O)C=C)CC5)CC4)c4c(OC(C)=O)ccc(OC(C)=O)c34)CC2)CC1` (centres unmarked) [Compound 1-17], in data set [1], the Precipitation suppression entry is “C (Higher than 100 °C and 150 °C or lower)”. In addition, the Solubility in data set [2] came out at 20 % by mass.

For `C=CC(=O)OCCCCOC(=O)C1CCC(OC(=O)C2CCC(C(=O)Oc3ccc(OC(=O)C4CCC(C(=O)OC5CCC(C(=O)OCCCCOC(=O)C=C)CC5)CC4)c4ccccc34)CC2)CC1` (centres unmarked) [Compound 2-1], in data set [1], the Precipitation suppression result was “C (Higher than 100 °C and 150 °C or lower)”. The Solubility in data set [2] is listed as 10 % by mass.

Turning to `C=CC(=O)OCCCCOc1ccc(C(=O)Oc2ccc(C(=O)Oc3ccc(OC(=O)c4ccc(OC(=O)c5ccc(OCCCCOC(=O)C=C)cc5)cc4)c4c(OC(C)=O)cccc34)cc2)cc1` [Compound 2-2], the Precipitation suppression result in data set [1] is “C (Higher than 100 °C and 150 °C or lower)”. This compound also yielded a Solubility in data set [2] of 15 % by mass.

With `C=CC(=O)OCCCCOC(=O)C1CCC(C2CCC(C(=O)Oc3ccc(OC(=O)C4CCC(C5CCC(C(=O)OCCCCOC(=O)C=C)CC5)CC4)c4c(OS(C)(=O)=O)cccc34)CC2)CC1` (centres unmarked) [Compound 2-3], the Precipitation suppression result in data set [1] is given as “A (Lower than 50° C.)”. In data set [2], the Solubility was found to be 25 % by mass.

Take `C=CC(=O)OCCCCOC(=O)C1CCC(C2CCC(C(=O)Oc3ccc(OC(=O)C4CCC(C5CCC(C(=O)OCCCCOC(=O)C=C)CC5)CC4)c4c(OC(=O)CCl)cccc34)CC2)CC1` (centres unmarked) [Compound 2-4]: the Precipitation suppression entry in data set [1] was “A (Lower than 50° C.)”. The compound also had a Solubility in data set [2] of 20 % by mass.

`C=CC(=O)OCCCCOc1ccc(C(=O)Oc2ccc(OC(=O)c3ccc(OC(=O)c4ccc(OC(=O)c5ccc(OCCCCOC(=O)C=C)cc5)cc4)c(C)c3)cc2)cc1` [compound 2, reference compound]: the Precipitation suppression entry in data set [1] is “C (Higher than 100 °C and 150 °C or lower)”. Moreover, in data set [1] (summary of Table 3), the “precipitation suppression (in words)” value is on record as “deteriorated”. This compound showed a Solubility in data set [2] below 5 % by mass. Also, the “solubility (in words)” value in data set [2] (summary of Table 3) is “deteriorated”.

Source of the values: patent US20260243940A1, “COMPOUND, POLYMERIZABLE COMPOSITION, CURED PRODUCT, OPTICAL FILM, POLARIZING PLATE, AND IMAGE DISPLAY DEVICE” (FUJIFILM Corporation, priority 2019, published 2026).
